# “And” between values parts separate entries of the source, which are not always exact repeats. Equal values may be shown once. Read-outs that look alike come from different tables or passages of the source.
# Tests used:
# [1] = test system: SARS2; format: cell-based, SARS-CoV-2; conditions: for Percentage Inhibition Average 1 μM / Screening data (Relative infection to DMSO controls) Average 1 μM: SARS2, 1 μM; for Screening data (Relative infection to DMSO controls) Average 1 μM / Screening data (Relative infection to DMSO controls) Average 5 μM / Screening data (Relative infection to DMSO controls) Average 10 μM / Screening data (Relative infection to DMSO controls) Average 25 μM / Screening data (Relative infection to DMSO controls) Average 50 μM / Average (relative infection to DMSO over the 5 tested concentrations): 100=DMSO control; for Percentage Inhibition Average 5 μM / Screening data (Relative infection to DMSO controls) Average 5 μM: SARS2, 5 μM; for Percentage Inhibition Average 10 μM / Screening data (Relative infection to DMSO controls) Average 10 μM: SARS2, 10 μM; for Percentage Inhibition Average 25 μM / Screening data (Relative infection to DMSO controls) Average 25 μM: SARS2, 25 μM; for Percentage Inhibition Average 50 μM / Screening data (Relative infection to DMSO controls) Average 50 μM: SARS2, 50 μM; for Average (relative infection to DMSO over the 5 tested concentrations): SARS2, average over 1 to 50 uM
# [2] = test system: cells (nuclei count); conditions: for Relative cell count to DMSO controls, Average 1 μM / Relative cell count to DMSO controls, Average 5 μM / Relative cell count to DMSO controls, Average 10 μM / Relative cell count to DMSO controls, Average 25 μM / Relative cell count to DMSO controls, Average 50 μM: toxicity data, 100=DMSO control; for Relative cell count to DMSO controls, Average (for correlation analysis): average value over the 5 tested concentrations (1 to 50 uM)
# [3] = average of Exp 1-3 (SMW475, SMW477, SMW478), n 9, 1 uM
# [4] = average of Exp 1-3 (SMW475, SMW477, SMW478), n 9, 5 uM
# [5] = average of Exp 1-3 (SMW475, SMW477, SMW478), n 9, 10 uM
# [6] = average of Exp 1-3 (SMW475, SMW477, SMW478), n 9, 25 uM
# [7] = average of Exp 1-3 (SMW475, SMW477, SMW478), n 9, 50 uM
structure (smiles),measurement,setting,value
OC(COc1c(CNCCc2ccccc2F)cccc1N1CCNCC1)CN1CCCC1 (stereo not shown) [SILCS22],SARS2 antiviral activity,[1],activity approaching that of UMB18
same,"Infection Data, Average, Mean","[1]; Average of Exp 1-3, n 9, 1 uM",72.38%
same,"Infection Data, Average, Mean","[1]; Average of Exp 1-3, n 9, 5 uM",70.31%
same,"Infection Data, Average, Mean","[1]; Average of Exp 1-3, n 9, 10 uM",53.13%
same,"Infection Data, Average, Mean","[1]; Average of Exp 1-3, n 9, 25 uM",6.37%
same,"Infection Data, Average, Mean","[1]; Average of Exp 1-3, n 9, 50 uM",2.68%
same,Percentage Infection Relative to Appropriate DMSO Control with Avg Background Subtraction,"[1]; Exp 1 (SMW475), 1 uM, single well",68.46% and 64.64% and 77.37%
same,Percentage Infection Relative to Appropriate DMSO Control with Avg Background Subtraction,"[1]; Exp 1 (SMW475), 5 uM, single well",32.75% and 46.98% and 35.47%
same,Percentage Infection Relative to Appropriate DMSO Control with Avg Background Subtraction,"[1]; Exp 1 (SMW475), 10 uM, single well",15.62% and 28.80% and 29.55%
same,Percentage Infection Relative to Appropriate DMSO Control with Avg Background Subtraction,"[1]; Exp 1 (SMW475), 25 uM, single well",2.49% and 6.38% and 4.75%
same,Percentage Infection Relative to Appropriate DMSO Control with Avg Background Subtraction,"[1]; Exp 1 (SMW475), 50 uM, single well",0.02% and 3.92% and 4.65%
same,Percentage Infection Relative to Appropriate DMSO Control with Avg Background Subtraction,"[1]; Exp 2 (SMW477), 1 uM, single well",76.88% and 75.65% and 76.95%
same,Percentage Infection Relative to Appropriate DMSO Control with Avg Background Subtraction,"[1]; Exp 2 (SMW477), 5 uM, single well",93.66% and 92.49% and 88.62%
same,Percentage Infection Relative to Appropriate DMSO Control with Avg Background Subtraction,"[1]; Exp 2 (SMW477), 10 uM, single well",68.54% and 46.53% and 47.36%
same,Percentage Infection Relative to Appropriate DMSO Control with Avg Background Subtraction,"[1]; Exp 2 (SMW477), 25 uM, single well",5.13% and 4.50% and 4.04%
same,Percentage Infection Relative to Appropriate DMSO Control with Avg Background Subtraction,"[1]; Exp 2 (SMW477), 50 uM, single well",3.65% and 0.99% and 1.90%
same,Percentage Infection Relative to Appropriate DMSO Control with Avg Background Subtraction,"[1]; Exp 3 (SMW478), 1 uM, single well",62.06% and 83.81% and 65.64%
same,Percentage Infection Relative to Appropriate DMSO Control with Avg Background Subtraction,"[1]; Exp 3 (SMW478), 5 uM, single well",69.69% and 88.68% and 84.47%
same,Percentage Infection Relative to Appropriate DMSO Control with Avg Background Subtraction,"[1]; Exp 3 (SMW478), 10 uM, single well",92.75% and 69.87% and 79.13%
same,Percentage Infection Relative to Appropriate DMSO Control with Avg Background Subtraction,"[1]; Exp 3 (SMW478), 25 uM, single well",8.14% and 10.91% and 10.99%
same,Percentage Infection Relative to Appropriate DMSO Control with Avg Background Subtraction,"[1]; Exp 3 (SMW478), 50 uM, single well",1.60% and 3.82% and 3.54%
same,Percentage Inhibition Average 1 μM,[1],27.62%
same,Screening data (Relative infection to DMSO controls) Average 1 μM,[1],72.38
same,Percentage Inhibition Average 5 μM,[1],29.69%
same,Screening data (Relative infection to DMSO controls) Average 5 μM,[1],70.31
same,Percentage Inhibition Average 10 μM,[1],46.87%
same,Screening data (Relative infection to DMSO controls) Average 10 μM,[1],53.13
same,Percentage Inhibition Average 25 μM,[1],93.63%
same,Screening data (Relative infection to DMSO controls) Average 25 μM,[1],6.37
same,Percentage Inhibition Average 50 μM,[1],97.32%
same,Screening data (Relative infection to DMSO controls) Average 50 μM,[1],2.68
same,Average (relative infection to DMSO over the 5 tested concentrations),[1],40.97
same,"Relative cell count to DMSO controls, Average 1 μM",[2],126.41
same,"Relative cell count to DMSO controls, Average 5 μM",[2],125.64
same,"Relative cell count to DMSO controls, Average 10 μM",[2],137.18
same,"Relative cell count to DMSO controls, Average 25 μM",[2],131.85
same,"Relative cell count to DMSO controls, Average 50 μM",[2],68.81
same,"Toxicity Data, Average, Mean","[2]; Average of Exp 1-3, n 9, 1 uM",126.41%
same,"Toxicity Data, Average, Mean","[2]; Average of Exp 1-3, n 9, 5 uM",125.64%
same,"Toxicity Data, Average, Mean","[2]; Average of Exp 1-3, n 9, 10 uM",137.18%
same,"Toxicity Data, Average, Mean","[2]; Average of Exp 1-3, n 9, 25 uM",131.85%
same,"Toxicity Data, Average, Mean","[2]; Average of Exp 1-3, n 9, 50 uM",68.81%
same,"Relative cell count to DMSO controls, Average (for correlation analysis)",[2],117.98
CCN(CC)CCN(Cc1cccs1)C(=O)c1cccs1 [SILCS34],Percentage Infection Relative to Appropriate DMSO Control with Avg Background Subtraction,"[1]; Exp 1 (SMW475), 1 uM, Greiner Celigo plates",84.46% and 79.06% and 78.77%
same,Percentage Infection Relative to Appropriate DMSO Control with Avg Background Subtraction,"[1]; Exp 1 (SMW475), 5 uM, Greiner Celigo plates",83.89% and 91.52% and 85.89%
same,Percentage Infection Relative to Appropriate DMSO Control with Avg Background Subtraction,"[1]; Exp 1 (SMW475), 10 uM, Greiner Celigo plates",120.42% and 77.92% and 112.44%
same,Percentage Infection Relative to Appropriate DMSO Control with Avg Background Subtraction,"[1]; Exp 1 (SMW475), 25 uM, Greiner Celigo plates",73.54% and 67.42% and 88.43%
same,Percentage Infection Relative to Appropriate DMSO Control with Avg Background Subtraction,"[1]; Exp 1 (SMW475), 50 uM, Greiner Celigo plates",98.27% and 86.62% and 67.73%
same,Percentage Infection Relative to Appropriate DMSO Control with Avg Background Subtraction,"[1]; Exp 2 (SMW477), 1 uM, Greiner Celigo plates",117.81% and 129.29% and 121.32%
same,Percentage Infection Relative to Appropriate DMSO Control with Avg Background Subtraction,"[1]; Exp 2 (SMW477), 5 uM, Greiner Celigo plates",137.43% and 146.89% and 126.80%
same,Percentage Infection Relative to Appropriate DMSO Control with Avg Background Subtraction,"[1]; Exp 2 (SMW477), 10 uM, Greiner Celigo plates",142.94% and 144.38% and 155.80%
same,Percentage Infection Relative to Appropriate DMSO Control with Avg Background Subtraction,"[1]; Exp 2 (SMW477), 25 uM, Greiner Celigo plates",109.38% and 111.61% and 103.44%
same,Percentage Infection Relative to Appropriate DMSO Control with Avg Background Subtraction,"[1]; Exp 2 (SMW477), 50 uM, Greiner Celigo plates",62.30% and 66.46% and 58.63%
same,Percentage Infection Relative to Appropriate DMSO Control with Avg Background Subtraction,"[1]; Exp 3 (SMW478), 1 uM, Greiner Celigo plates",120.13% and 101.31% and 117.84%
same,Percentage Infection Relative to Appropriate DMSO Control with Avg Background Subtraction,"[1]; Exp 3 (SMW478), 5 uM, Greiner Celigo plates",108.72% and 96.17% and 137.98%
same,Percentage Infection Relative to Appropriate DMSO Control with Avg Background Subtraction,"[1]; Exp 3 (SMW478), 10 uM, Greiner Celigo plates",127.49% and 93.45% and 116.79%
same,Percentage Infection Relative to Appropriate DMSO Control with Avg Background Subtraction,"[1]; Exp 3 (SMW478), 25 uM, Greiner Celigo plates",164.75% and 165.91% and 139.33%
same,Percentage Infection Relative to Appropriate DMSO Control with Avg Background Subtraction,"[1]; Exp 3 (SMW478), 50 uM, Greiner Celigo plates",145.01% and 171.02% and 138.34%
same,Percentage Inhibition Average 1 μM,[1],−5.55%
same,Screening data (Relative infection to DMSO controls) Average 1 μM,[1],105.55
same,Percentage Inhibition Average 5 μM,[1],−12.81%
same,Screening data (Relative infection to DMSO controls) Average 5 μM,[1],112.81
same,Percentage Inhibition Average 10 μM,[1],−21.29%
same,Screening data (Relative infection to DMSO controls) Average 10 μM,[1],121.29
same,Percentage Inhibition Average 25 μM,[1],−13.76%
same,Screening data (Relative infection to DMSO controls) Average 25 μM,[1],113.76
same,Percentage Inhibition Average 50 μM,[1],0.62%
same,Screening data (Relative infection to DMSO controls) Average 50 μM,[1],99.38
same,Average (relative infection to DMSO over the 5 tested concentrations),[1],110.56
same,"Infection Data, Average, Mean",[1]; [3],105.55%
same,"Infection Data, Average, Mean",[1]; [4],112.81%
same,"Infection Data, Average, Mean",[1]; [5],121.29%
same,"Infection Data, Average, Mean",[1]; [6],113.76%
same,"Infection Data, Average, Mean",[1]; [7],99.38%
same,"Relative cell count to DMSO controls, Average 1 μM",[2],102.47
same,"Relative cell count to DMSO controls, Average 5 μM",[2],99.62
same,"Relative cell count to DMSO controls, Average 10 μM",[2],91
same,"Relative cell count to DMSO controls, Average 25 μM",[2],89.42
same,"Relative cell count to DMSO controls, Average 50 μM",[2],67.85
same,"Toxicity Data, Average, Mean",[2]; [3],102.47%
same,"Toxicity Data, Average, Mean",[2]; [4],99.62%
same,"Toxicity Data, Average, Mean",[2]; [5],91.00%
same,"Toxicity Data, Average, Mean",[2]; [6],89.42%
same,"Toxicity Data, Average, Mean",[2]; [7],67.85%
same,"Relative cell count to DMSO controls, Average (for correlation analysis)",[2],90.07

# — patent publication US20240132484A1, “BROAD SPECTRUM ANTIVIRAL COMPOUNDS TARGETING THE SKI COMPLEX” (priority 2020, published 2024)
